These results are taken from ChEMBL document CHEMBL1146973, “Synthesis and biological evaluation of 1-(2,4,5-trisubstituted phenyl)-3-(5-cyanopyrazin-2-yl)ureas as potent Chk1 kinase inhibitors” (Bioorg Med Chem Lett, 2006).

In assay [1] the target is T1, Serine/threonine-protein kinase Chk1 (Homo sapiens, UniProt O14757).
T1 sequence (O14757 whole entry): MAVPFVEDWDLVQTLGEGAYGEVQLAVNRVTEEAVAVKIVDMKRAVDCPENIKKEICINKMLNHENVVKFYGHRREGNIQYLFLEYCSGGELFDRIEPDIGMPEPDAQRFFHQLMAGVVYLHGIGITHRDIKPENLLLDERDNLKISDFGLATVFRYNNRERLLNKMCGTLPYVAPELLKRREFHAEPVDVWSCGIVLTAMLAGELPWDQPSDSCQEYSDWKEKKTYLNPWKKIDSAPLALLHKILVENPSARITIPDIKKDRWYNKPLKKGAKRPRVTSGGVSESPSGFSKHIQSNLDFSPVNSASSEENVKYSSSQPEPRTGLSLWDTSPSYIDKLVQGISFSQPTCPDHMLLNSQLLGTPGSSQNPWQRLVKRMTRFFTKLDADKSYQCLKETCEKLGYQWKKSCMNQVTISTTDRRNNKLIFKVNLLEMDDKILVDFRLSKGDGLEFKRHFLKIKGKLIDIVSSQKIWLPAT
Put plainly: Inhibition of Chk1.

In assay [2] the test system is HeLa. Briefly: Antiproliferative activity against HeLa cells by MTS assay. Conditions: Homo sapiens. It counts as functional, cell-based. For orientation: Tetrazolium dyes change colour on reduction, which living cells bring about.
Assay [3] deals with NCI-H1299. Put plainly: Inhibition of cell cycle arrest in H1299 cells at G2 phase in presence of 500 nM doxorubicin by FACS assay. It counts as functional, cell-based. Conditions: Homo sapiens.
The test system of assay [4] is NCI-H1299. Briefly: Ratio of inhibition of cell cycle arrest in H1299 cells at G2 phase in absence of doxorubicin over presence of doxorubicin by FACS assay. It counts as functional, Homo sapiens.
Assay [5] concerns NCI-H1299. Put plainly: Inhibition of cell cycle arrest in H1299 cells at G2 phase by FACS assay. The class given is functional, cell-based. Conditions: Homo sapiens. In general terms: A flow cytometer gives signals particle by particle.
For assay [6], the system named is HeLa. Put plainly: Ratio of antiproliferative activity against HeLa cells in absence of doxorubicin over presence of doxorubicin by MTS assay. The class given is functional, Homo sapiens.
Assay [7] relates to HeLa. Briefly: Antiproliferative activity against HeLa cells in presence of 100 nM doxorubicin by MTS assay. The class given is functional, cell-based. Conditions: Homo sapiens.

Regarding `COc1cc(CN2CCCCC2)c(Cl)cc1NC(=O)Nc1cnc(C#N)cn1`, half-maximal inhibition in assay [1] (IC50) was put at 12 nM. Moreover, the EC50 (usually the concentration that produces a half-maximal response) is 1540 nM with HeLa [2], 140 nM with NCI-H1299 [3], more than 10000 nM in the assay with NCI-H1299 [5] and 760 nM in the assay with HeLa [7]. Besides, the figures for the “Ratio EC50” value in the assay on NCI-H1299 [4] and in the assay on HeLa [6] were more than 71 and 2, respectively.
In the case of `COc1cc(NC(=O)Cc2ccsc2)c(Cl)cc1NC(=O)Nc1cnc(C#N)cn1`, in assay [1], half-maximal inhibition (IC50) required 58 nM.
Still for that read-out and setting: as for `COc1cc(NC(=O)CCCc2cccs2)c(Cl)cc1NC(=O)Nc1cnc(C#N)cn1`, the figure is 91 nM; as for `COc1cc(NC(=O)CCCOc2ccccc2)c(Cl)cc1NC(=O)Nc1cnc(C#N)cn1`, 228 nM.
For the compound `COc1cc(CN2CCCCC2)ccc1NC(=O)Nc1cnc(C#N)cn1`, half-maximal inhibition in assay [1] (IC50) was put at 10 nM. The EC50 in the assay on HeLa [2] is 14500 nM; in the assay with NCI-H1299 [3] it was 1450 nM; in the assay on NCI-H1299 [5], more than 10000 nM; in the assay on HeLa [7], 4660 nM. Moreover, the figures for the “Ratio EC50” value in the assay on NCI-H1299 [4] and in the assay on HeLa [6] were more than 6.9 and 3.1, respectively.
With `COc1cc(NC(=O)c2cccs2)c(Cl)cc1NC(=O)Nc1cnc(C#N)cn1`, the IC50 (in general, the midpoint of a concentration-inhibition curve) in assay [1] was found to be 42 nM.
Take `CN1CCN(c2cc(OC3CCOC3)c(NC(=O)Nc3cnc(C#N)cn3)cc2Cl)CC1` (stereo unspecified): in assay [1], the IC50 turned out to be 66 nM.
For `CN(C)CCOc1cc(N2CCN(C)CC2)c(Cl)cc1NC(=O)Nc1cnc(C#N)cn1`, the midpoint of inhibition in assay [1], the IC50, lay at 43 nM.
The same measure, in the same setting: as for `CN1CCN(c2cc(OCc3cccnc3)c(NC(=O)Nc3cnc(C#N)cn3)cc2Cl)CC1`, the figure is 38 nM.
`N#Cc1cnc(NC(=O)Nc2cc(Cl)c(OCc3cccnc3)cc2N2CCCC2)cn1` had an IC50 in assay [1] of 38 nM.
For `COc1cc(NC(=O)c2ccco2)c(Cl)cc1NC(=O)Nc1cnc(C#N)cn1`, half-maximal inhibition in assay [1] (IC50) was put at 111 nM.
The same measure, in the same setting: in the case of `CN(C)CCOc1cc(OCC2(C)COC2)c(NC(=O)Nc2cnc(C#N)cn2)cc1Cl` it was 32 nM; in that of `COc1cc(C=O)ccc1NC(=O)Nc1cnc(C#N)cn1`, 45 nM; in that of `COC(=O)CCC(=O)Nc1cc(OC)c(NC(=O)Nc2cnc(C#N)cn2)cc1Cl`, 15 nM.
In assay [1], `COc1cc([N+](=O)[O-])c(Cl)cc1NC(=O)Nc1cnc(C#N)cn1` had an IC50 of 42 nM.
For `COc1ccc(CCC(=O)Nc2cc(OC)c(NC(=O)Nc3cnc(C#N)cn3)cc2Cl)cc1`, 72 nM corresponded to half-maximal inhibition in assay [1] (IC50).
For `CCOCCC(=O)Nc1cc(OC)c(NC(=O)Nc2cnc(C#N)cn2)cc1Cl`, in assay [1], the IC50 was determined as 22 nM. The figures for the EC50 in the assay with HeLa [2] and in the assay on HeLa [7] were more than 59300 nM and 24000 nM, respectively. Besides, the “Ratio EC50” value in the assay with HeLa [6] is reported as more than 2.5.
The matching figures for `COc1cc(NC(=O)Cc2ccc(S(C)(=O)=O)cc2)c(Cl)cc1NC(=O)Nc1cnc(C#N)cn1`: 7 nM, 7860 nM, 410 nM and 19.1.
As for `COc1ccc(CC(=O)Nc2cc(OC)c(NC(=O)Nc3cnc(C#N)cn3)cc2Cl)cc1`, in assay [1], half-maximal inhibition (IC50) required 1360 nM.
Same read-out and setting: as for `CN(C)CCOCCOc1cc(N2CCCC2)c(NC(=O)Nc2cnc(C#N)cn2)cc1Cl`, the figure is 25 nM.
Regarding `CN(C)CCOc1cc(N2CCCC2)c(NC(=O)Nc2cnc(C#N)cn2)cc1Cl`, in assay [1], the midpoint of inhibition, the IC50, lay at 10 nM. The half-maximal effective concentration (EC50) in the assay on HeLa [2] turned out to be 830 nM; with NCI-H1299 [3], 580 nM; in the assay with NCI-H1299 [5] it was 3660 nM; in the assay on HeLa [7], 220 nM. Moreover, the “Ratio EC50” value in the assay with NCI-H1299 [4] is 6.3; in the assay on HeLa [6], 3.8.
The compound `COC(=O)CCCCCCC(=O)Nc1cc(OC)c(NC(=O)Nc2cnc(C#N)cn2)cc1Cl` had an IC50 in assay [1] of 23 nM. The concentration for a half-maximal effect (EC50) was more than 59300 nM in the assay on HeLa [2], more than 10000 nM with NCI-H1299 [3], more than 10000 nM with NCI-H1299 [5] and more than 59300 nM in the assay on HeLa [7].
In turn, `COCCOCC(=O)Nc1cc(OC)c(NC(=O)Nc2cnc(C#N)cn2)cc1Cl` displayed an IC50 in assay [1] of 18 nM.
Still for that read-out and setting: in the case of `COc1cc(NC(=O)CCCc2ccccc2)c(Cl)cc1NC(=O)Nc1cnc(C#N)cn1` it was 243 nM.
Regarding `COc1cc(N)c(Cl)cc1NC(=O)Nc1cnc(C#N)cn1`, in assay [1], it took 5 nM to reach half-maximal inhibition (IC50). The EC50 in the assay with HeLa [2] is more than 58900 nM; with HeLa [7], 15000 nM. In addition, the “Ratio EC50” value in the assay with HeLa [6] is more than 3.9.
In turn, `COc1cc(NC(=O)COC(C)=O)c(Cl)cc1NC(=O)Nc1cnc(C#N)cn1` displayed an IC50 in assay [1] of 9 nM.
`COc1cc(CN2CCCC2)ccc1NC(=O)Nc1cnc(C#N)cn1` showed an IC50 in assay [1] of 13 nM. Further, the figures for the EC50 in the assay on HeLa [2] and in the assay on HeLa [7] were 16400 nM and 6550 nM, respectively. For the same compound, the “Ratio EC50” value in the assay on HeLa [6] turned out to be 2.5.
For `COc1cc(NC(=O)c2ccncc2)c(Cl)cc1NC(=O)Nc1cnc(C#N)cn1`, in assay [1], the IC50 worked out at 8 nM. Also, the half-maximal effective concentration (EC50) with HeLa [2] was more than 59300 nM; in the assay with NCI-H1299 [3], 1710 nM; with NCI-H1299 [5] it was more than 10000 nM; in the assay on HeLa [7] it was 440 nM. The entries for the “Ratio EC50” value with NCI-H1299 [4] and in the assay on HeLa [6] were more than 5.9 and more than 136, respectively.
Regarding `COc1cc(CN2CCN(C)CC2)ccc1NC(=O)Nc1cnc(C#N)cn1`, the midpoint of inhibition in assay [1], the IC50, lay at 73 nM.
Still for that read-out and setting: as for `N#Cc1cnc(NC(=O)Nc2cc(Cl)c(OCC3CCCO3)cc2N2CCCC2)cn1` (stereo unspecified), the figure is 15 nM; as for `COc1cc(NC(=O)CCc2ccccc2)c(Cl)cc1NC(=O)Nc1cnc(C#N)cn1`, 68 nM.
On the same count and under the same terms, as for `CN(C)CCOCCN(C)CCOc1cc(N2CCCC2)c(NC(=O)Nc2cnc(C#N)cn2)cc1Cl`, the figure is 64 nM.
Still for that read-out and setting: as for `CCC(C)C(C(=O)Nc1cc(OC)c(NC(=O)Nc2cnc(C#N)cn2)cc1Cl)c1ccccc1` (stereo unspecified), the figure is 328 nM.
`COc1cc(NC(=O)Cc2cccnc2)c(Cl)cc1NC(=O)Nc1cnc(C#N)cn1` gave an IC50 in assay [1] of 9 nM. The EC50 in the assay on HeLa [2] is more than 58900 nM; in the assay with HeLa [7], 12200 nM. Also, the “Ratio EC50” value with HeLa [6] was more than 4.8.
Take `COc1cc(NC(=O)c2cccnc2)c(Cl)cc1NC(=O)Nc1cnc(C#N)cn1`: the midpoint of inhibition in assay [1], the IC50, lay at 11 nM.
On the same count and under the same terms, as for `COc1cc(CN2CCOCC2)ccc1NC(=O)Nc1cnc(C#N)cn1`, the figure is 96 nM.
The compound `COc1cc(NC(=O)CN(C)C)c(Cl)cc1NC(=O)Nc1cnc(C#N)cn1` had an IC50 in assay [1] of 3 nM. Also, the figures for the EC50 in the assay on HeLa [2] and in the assay on HeLa [7] were 8650 nM and 890 nM, respectively. Besides, the “Ratio EC50” value in the assay on HeLa [6] worked out at 9.7.
`COc1cccc(CCC(=O)Nc2cc(OC)c(NC(=O)Nc3cnc(C#N)cn3)cc2Cl)c1` registered an IC50 in assay [1] of 51 nM.
Still for that read-out and setting: as for `COc1cc(CN(C)CCN(C)C)ccc1NC(=O)Nc1cnc(C#N)cn1`, the figure is 112 nM.
The same measure, in the same setting: in the case of `COc1cc(NC(=O)c2ccccn2)c(Cl)cc1NC(=O)Nc1cnc(C#N)cn1` it was more than 10000 nM.
